The source of these data is patent publication US20110071197A1, “BIS-ARYL COMPOUNDS FOR USE AS MEDICAMENTS” (priority 2008, published 2011).

In this experiment the target is T1, Recombinant human LTC4 synthase (Homo sapiens, UniProt Q16873).
T1 construct: made in house; host or cells: Pichia pastoris
T1 sequence (Q16873 1-150): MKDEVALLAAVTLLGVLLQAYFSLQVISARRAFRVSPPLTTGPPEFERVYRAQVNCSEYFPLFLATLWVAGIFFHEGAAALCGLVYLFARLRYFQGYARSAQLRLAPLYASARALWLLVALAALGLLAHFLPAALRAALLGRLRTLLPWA
The experiment can be described thus: LTC4 synthase in vitro assay (HTRF detection of LTC4). The conditions noted are these: HTRF method; for inhibition at 10 µM / % inh.: total concentration of title compound in the assay 10 μM; for inhibition at 3 µM: compound concentration 3 μM. Type of experiment: biochemical. The procedure:
Alternatively HTRF detection of LTC4 can be used:
In the assay, LTC4 synthase catalyses the reaction where the substrate LTA4 is converted to LTC4. Recombinant human LTC4 synthase is expressed in Piccia pastoralis and the purified enzyme is dissolved in 25 mM Tris-buffer pH 7.8 supplemented with 0.1 mM glutathione (GSH) and stored at −80° C. The assay is performed in phosphate buffered saline (PBS) pH 7.4 and 5 mM GSH in 384-well plates.
The following is added chronologically to each well: • 1. 48 μl LTC4 synthase in PBS with 5 mM GSH. The total protein concentration in this solution is 0.5 μg/ml. • 2. […] Incubation of the plate at room temperature for 10 minutes. • 4. 1 μl LTA4 (final conc. 2.5 μM). • 5. Incubation of the plate at room temperature for 5 minutes. • 6. 10 μl of the incubation mixture is analysed using homogeneous time resolved fluorescent (HTRF) detection.
In general terms: TR-FRET usually uses a lanthanide donor and a delayed reading to cut background.

By inhibition is commonly meant the change of the read-out against control, counted positive when it falls.

Take `CN(C(=O)c1ccc(C(F)(F)F)cc1)c1ccc(Oc2ccc(NC(=O)c3ccc(Cl)cc3Cl)c(C(=O)O)c2)cc1` [9:5, 5-(4-((N-methyl)-4-trifluoromethyl-benzamido)phenoxy)-2-(2,4-dichloro-benzamido)benzoic acid]: the inhibition at 10 µM is 98%.

As to `O=C(Nc1cccc(Oc2ccc(NC(=O)c3ccc(C(F)(F)F)cc3F)c(C(=O)O)c2)c1)c1cccc(C(F)(F)F)c1` [10:5, 2-(2-fluoro-4-trifluoromethylbenzoyl-amino)-5-[3-(3-trifluoro-methylbenzoylamino)phenoxy]benzoic acid], the “% inh.” value is recorded as 98%.

As to `CCCCc1ccc(C(=O)Nc2ccc(Oc3ccc(NS(=O)(=O)c4ccc5c(c4)CNCC5)c(CC(=O)O)c3)cc2)cc1` [17:6, [5-[4-(4-butyl-benzoylamino)-phenoxy]-2-(1,2,3,4-tetrahydro-isoquinoline-7-sulfonylamino)-phenyl]-acetic acid], the inhibition at 10 µM was 23%.

For `CC(C)(C)c1ccc(C(=O)Nc2ccc(Oc3ccc(NC(=O)c4cccnc4Cl)c(C(=O)O)c3)cc2)cc1` [8:16, 5-[4-(4-tert-Butylbenzoyl-amino)phenoxy]-2-[(2-chloro-pyridine-3-carbonyl)-amino]benzoic acid], the inhibition at 10 µM was determined as 99%.

Turning to `CCCCOc1ccc(S(=O)(=O)NC(=O)Cc2cccc(Oc3ccc(Nc4ccc(Cl)cc4)c(C(=O)O)c3)c2)cc1` [26:1, 5-{3-[2-(4-Butoxybenzenesulfonyl-amino)-2-oxoethyl]phenoxy}-2-(4-chlorophenylamino)benzoic acid], the inhibition at 3 µM was determined as 94%.

Take `O=C(Nc1ccc(Sc2ccc(NC(=O)c3ccc(Cl)cc3Cl)c(C(=O)O)c2)cc1)c1ccc(C(F)(F)F)cc1` [Example 35:1, 2-(2,4-Dichlorobenzoylamino)-5-[4-(4-trifluoromethylbenzoylamino)phenyl-sulfanyl]benzoic acid]: the inhibition at 10 µM was determined as 99%.

Turning to `CCCCc1ccc(C(=O)Nc2ccc(Oc3ccc(NC(=O)c4ccccc4)c(C(=O)O)c3)cc2C(=O)O)cc1` [5:1, 5-[3-carboxy-4-(4-butylbenzamido)-phenyloxy]-2-benzamidobenzoic acid], the inhibition at 10 µM turned out to be 100%.

Regarding `CCCCc1ccc(C(=O)Nc2ccc(Oc3ccc(NC(=O)c4ccccc4)cc3)cc2C(=O)O)cc1` [8:8, 5-(4-benzoylaminophenoxy)-2-(4-butylbenzoylamino)benzoic acid], the inhibition at 3 µM was determined as 89%.

Consider `CCCCc1ccc(C(=O)Nc2ccc(Oc3ccc(N(C)C(=O)c4ccc(CCCC)cc4)cc3)cc2C(=O)O)cc1` [9:1, 5-(4-((N-methyl)-4-butylbenz-amido)phenoxy)-2-(4-butylbenz-amido)benzoic acid], for which the “% inh.” value is 100%.

As for `CC(C)Oc1ccc(C(=O)Nc2ccc(Oc3ccc(S(=O)(=O)Nc4ccc(F)c(F)c4)cc3)cc2C(=O)O)cc1` [25:6, 5-[4-(3,4-Difluoro-phenylsulfamoyl)-phenoxy]-2-(4-isopropoxybenzoyl-amino)benzoic acid], the inhibition at 10 µM amounted to 100%.

In the case of `CCCCc1ccc(C(=O)Nc2ccc(Oc3ccc(NS(=O)(=O)c4ccccc4)c(C(=O)OC)c3)cc2C(=O)O)cc1` [Example 7:1, 2-(4-butylbenzamido)-5-(3-(methoxycarbonyl)-4-(phenylsulfonamido)-phenoxy)benzoic acid], the inhibition at 10 µM was found to be 95%.

As to `CCCCOc1ccc(S(=O)(=O)Nc2ccc(Oc3ccc(Nc4ccc(F)c(F)c4)cc3C(=O)O)cc2C(=O)O)cc1` [Example 1:9, 2-(4-butoxybenzenesulfonyl-amino)-5-[4-(2-carboxy)(3,4-di-fluorophenylamino)phenoxy]-benzoic acid], the “% inh.” value amounted to 100%.

On to `O=C(Nc1ccc(Oc2ccc(NC(=O)c3cc(Cl)ccc3O)cc2)cc1C(=O)O)c1ccc(C(F)(F)F)cc1` [8:3, 5-[4-(5-chloro-2-hydroxybenzoylamino)phenoxy]-2-(4-trifluoro-methylbenzoylamino)-benzoic acid], for which the “% inh.” value is 96%.

In the case of `O=C(Nc1ccc(Oc2ccc(NC(=O)c3cccc(Cl)c3)c(C(=O)O)c2)cc1C(=O)O)c1cccc(Cl)c1` [4:4, 5-[3-carboxy-4-(3-chlorobenzamido)phenyloxy]-2-(3-chlorobenzamido)benzoic acid], the inhibition at 10 µM amounted to 99%.

For `CCCCc1ccc(S(=O)(=O)N(C)c2ccc(Oc3ccc(NC(=O)c4ccc(OC(C)C)cc4)c(C(=O)O)c3)cc2)cc1` [11:6, 5-{4-[(4-butylbenzene-sulfonyl)-methylamino]phenoxy}-2-(4-isopropoxybenzoylamino)-benzoic acid], the inhibition at 10 µM turned out to be 96%.

As for `CCCCc1ccc(C(=O)Nc2ccc(Oc3ccc(NC(=O)c4ccc(Cl)cc4Cl)c(CC(=O)O)c3)cc2)cc1` [17:5, [5-[4-(4-butyl-benzoylamino)-phenoxy]-2-(2,4-dichloro-benzoylamino)-phenyl]-acetic acid], the inhibition at 10 µM was 94%.

As to `COc1ccc(S(=O)(=O)N(C)c2ccc(Oc3ccc(NC(=O)c4c(F)cccc4F)c(C(=O)O)c3)cc2)cc1` [11:16, 2-(2,6-Difluoro-benzoylamino)-5-{4-[(4-methoxy-benzenesulfonyl)-methyl-amino]-phenoxy}-benzoic acid], the inhibition at 10 µM was determined as 94%.

In the case of `O=C(O)c1cc(Oc2ccc(Nc3ccc(F)cc3)cc2)ccc1Nc1ccc(F)c(F)c1` [Example 12:1, 2-(3,4-difluorophenylamino)-5-(4-(4-fluorophenylamino)-phenoxy)benzoic acid], the inhibition at 10 µM was 96%.

On to “5-{4-[(4-methoxybenzene-sulfonyl)methylamino]-phenoxy}-2-(4-trifluoromethyl-benzoylamino)benzoic acid [11:3]”, for which the “% inh.” value is 98%.

On to `CCCCc1ccc(C(=O)Nc2cccc(Oc3ccc(NC(=O)c4ccc(OC(F)(F)F)cc4)c(C(=O)O)c3)c2)cc1` [10:2, 5-[(3-(4(1-butyl)benzoylamino)-phenoxy)]-2-(4-trifluoromethoxy-benzoylamino)benzoic acid], for which the inhibition at 10 µM came out at 88%.

On to `CCCCOc1ccc(S(=O)(=O)Nc2ccc(Oc3cccc(NCc4cccc(F)c4F)c3)cc2C(=O)O)cc1` [23:1, 2-(4-Butoxybenzenesulfonylamino)-5-[3-(2,3-difluorobenzylamino)-phenoxy]benzoic acid], for which the inhibition at 10 µM turned out to be 100%.

As to `Cc1c(Cl)cccc1S(=O)(=O)Nc1ccc(Oc2ccc(Nc3ccc(F)c(F)c3)c(C(=O)O)c2)cn1` [Example 33:2, 5-(6-(3-Chloro-2-methylphenylsulfonamido)pyridin-3-yloxy)-2-(3,4-difluorophenylamino)benzoic acid], the inhibition at 10 µM worked out at 99%.

`CCCCOc1ccc(S(=O)(=O)Nc2ccc(Oc3ccc(N(C)C(=O)c4ccccc4)c(C(=O)O)c3)cc2)cc1` [11:9, 2-(benzoylmethylamino)-5-[4-(4-butoxybenzenesulfonylamino)-phenoxy]benzoic acid]: the inhibition at 10 µM is 89%.

As to `O=C(O)Cc1cc(Oc2ccc(NC(=O)c3ccc(C(F)(F)F)cc3F)c(C(=O)O)c2)ccc1NC(=O)c1cc(F)c(Cl)cc1F` [6:5, 5-[3-carboxy-methyl-4-(4-chloro-2,5-difluoro-benzoylamino)-phenoxy]-2-(2-fluoro-4-trifluoro-methylbenzoylamino)-benzoic acid], the “% inh.” value worked out at 96%.

`O=C(O)c1cc(Oc2ccc(S(=O)(=O)Nc3ccc(Cl)cc3)cc2)ccc1Nc1ccc(F)c(F)c1` [Example 25:7, 5-[4-(4-Chlorophenylsulfamoyl)-phenoxy]-2-(3,4-difluorophenyl-amino)benzoic acid]: the inhibition at 10 µM turned out to be 100%.
